This passage reports IC50 results from patent US20050222146A1, “N-substituted-n-sulfonylaminocyclopropane compounds and pharmaceutical use thereof” (priority 2003, published 2005).

One may read the IC50 as the midpoint of a concentration-inhibition curve.

What all share (assay type): biochemical
Assay [1] concerns the target T1, MMP-1 (Homo sapiens, UniProt P03956).
T1 sequence (P03956 100-469): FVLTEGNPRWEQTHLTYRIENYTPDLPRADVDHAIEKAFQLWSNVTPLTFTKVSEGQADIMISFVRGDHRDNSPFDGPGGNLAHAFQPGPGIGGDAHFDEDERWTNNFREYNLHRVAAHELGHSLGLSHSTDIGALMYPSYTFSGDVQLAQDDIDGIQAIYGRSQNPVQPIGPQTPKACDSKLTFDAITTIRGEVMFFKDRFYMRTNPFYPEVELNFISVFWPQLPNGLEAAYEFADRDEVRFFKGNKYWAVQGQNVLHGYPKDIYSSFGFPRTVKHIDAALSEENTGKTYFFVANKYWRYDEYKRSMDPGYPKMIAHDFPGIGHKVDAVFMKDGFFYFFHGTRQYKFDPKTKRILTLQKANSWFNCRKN
Description: MMP-1 inhibitory action, Type I collagen Activity Measurement kit (FITC-labeled collagen type I). As to conditions: 37° C. for 3 hr, read-out: Experimental Example 2 IC50 MMP1.

For assay [2], the target named is T2, aggrecanase-1 (Homo sapiens, UniProt O75173).
T2 sequence (O75173 213-837): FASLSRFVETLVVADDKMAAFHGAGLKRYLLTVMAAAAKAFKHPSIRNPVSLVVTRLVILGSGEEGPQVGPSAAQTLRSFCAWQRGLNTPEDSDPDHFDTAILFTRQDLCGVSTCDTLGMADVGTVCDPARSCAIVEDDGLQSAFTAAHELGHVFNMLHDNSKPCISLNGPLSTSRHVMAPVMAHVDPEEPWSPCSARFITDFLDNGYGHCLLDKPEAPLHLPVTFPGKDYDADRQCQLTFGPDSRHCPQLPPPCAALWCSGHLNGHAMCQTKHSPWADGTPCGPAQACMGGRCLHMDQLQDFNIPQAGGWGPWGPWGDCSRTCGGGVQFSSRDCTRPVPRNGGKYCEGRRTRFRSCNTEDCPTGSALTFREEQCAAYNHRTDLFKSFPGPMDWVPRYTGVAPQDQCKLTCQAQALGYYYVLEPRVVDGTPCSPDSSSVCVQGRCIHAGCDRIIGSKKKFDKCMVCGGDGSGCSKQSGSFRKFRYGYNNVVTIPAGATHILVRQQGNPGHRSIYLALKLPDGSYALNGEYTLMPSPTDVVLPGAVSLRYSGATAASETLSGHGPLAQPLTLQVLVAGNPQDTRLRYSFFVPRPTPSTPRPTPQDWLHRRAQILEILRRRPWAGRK
Description: Aggrecanase-1 inhibitory action, Particle Assay (GAG release from aggrecan-containing polyacrylamide particles). As to conditions: 37° C. for 15 hr, read-out: Experimental Example 1 IC50 AG1. In a few lines:
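IC50 (μM) derived from % inhibition, referenced to enzyme-free and inhibitor-free wells, of GAG release read as 1,9-dimethylmethylene blue absorbance at 595 nm (chondroitin sulfate standard). Substrate: aggrecan-bearing polyacrylamide particles, exposed to enzyme plus compound in Tris-HCl for 15 hr at 37 °C.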

Assay [3] deals with T3, Recombinant Human MMP-13 (Homo sapiens, UniProt P45452).
T3 construct: purchased R&D systems 511-MM
Nature of the assay: MMP-13 inhibition, MMP-13 specific fluorescent substrate with quencher. The settings on record: synthetic substrate 7-MCA-Pro-CHA-Gly-NVal-His-Ala-DPA, 25° C. for 1 h; read-out: Experimental Example 3 IC50 MMP13. The procedure:
Inhibitory activity of tested compounds on MMP-13 was measured using MMP-13 specific fluorescent substrate with quencher.
The enzyme and substrate were diluted with Tris-HCl buffer, and test compounds were diluted with dimethyl sulfoxide (DMSO).
Test compounds and the enzyme (Recombinant Human MMP-13: R&D systems, 511-MM) were added into 96-well plate. The reaction was initiated by adding synthetic substrate (7-MCA-Pro-CHA-Gly-NVal-His-Ala-DPA: enzyme systems products, Met-06) into the plate. After incubation at 25° C. for 1 h, the reaction was terminated by addition of reaction terminating solution containing acetic acid. Fluorescence intensity of each well was measured (Ex: 325 nm, Em: 405 nm) and the MMP-13 inhibitory activity of the compound in each well (%) was calculated based on the values of enzyme-free well and inhibitor-free well. The inhibitory activity of the compound was represented as IC50 (μM).

Regarding `O=C(O)[C@@]12C[C@]1(c1ccccc1)CCCN2S(=O)(=O)c1ccc(-c2cc(C(F)(F)F)on2)s1` (relative stereo) [Example 2-22, (1R*,6S*)-6-Phenyl-2-[5-(5-trifluoromethyl-isoxazol-3-yl)-thiophene-2-sulfonyl]-2-aza-bicyclo[4.1.0]heptane-1-carboxylic acid], the IC50 in assay [1] was no less than 10000 nM; in assay [2], no less than 1000 nM; in assay [3], no less than 1000 nM.
Take `O=C(O)[C@@]1(N(CCCO)S(=O)(=O)c2ccc(-c3ccc(Cl)cc3)s2)C[C@H]1c1ccccc1` [Example 2-18, (1R,2S)-1-[[5-(4-Chloro-phenyl)-thiophene-2-sulfonyl]-(3-hydroxy-propyl)-amino]-2-phenyl-cyclopropanecarboxylic acid]: the half-inhibitory concentration (IC50) is no less than 10000 nM in assay [1], no less than 1000 nM in assay [2] and less than 1000 nM in assay [3].
As for `O=C(OCCCN([C@]1(C(=O)O)C[C@H]1c1ccccc1)S(=O)(=O)c1ccc(-c2ccc(Cl)cc2)s1)N1CCOCC1` [Example 2-20, Morpholine-4-carboxylic acid 3-{((1R,2S)-1-carboxy-2-phenyl-cyclopropyl)-[5-(4-chloro-phenyl)-thiophene-2-sulfonyl]-amino}-propyl ester], the 50% inhibitory concentration (IC50) in assay [1] was no less than 10000 nM; in assay [2], no less than 1000 nM; in assay [3], no less than 1000 nM.
In the case of `CN1CC2(c3ccccc3)CC2(C(=O)O)N(S(=O)(=O)c2ccc(-c3ccc(Cl)cc3)s2)CC1=O` (stereo not drawn) [Example 2-27, (1R*,7R*)-2-[5-(4-Chloro-phenyl)-thiophene-2-sulfonyl]-5-methyl-4-oxo-7-phenyl-2-,5-diaza-bicyclo[5.1.0]octane-1-carboxylic acid], the IC50 is no less than 10000 nM in assay [1], no less than 1000 nM in assay [2] and no less than 1000 nM in assay [3].
As to `O=C(O)[C@@]12C[C@]1(c1ccccc1)CCN2S(=O)(=O)c1ccc(-c2ccc(Cl)cc2)s1` (relative stereo) [Example 2-23, (1R*,5S*)-2-[5-(4-Chloro-phenyl)-thiophene-2-sulfonyl]-5-phenyl-2-aza-bicyclo[3.1.0]hexane-1-carboxylic acid], the IC50 in assay [1] is no less than 10000 nM; in assay [2] it was no less than 1000 nM; in assay [3], no less than 1000 nM.
As to `Nc1nnn(CCN([C@]2(C(=O)O)C[C@H]2c2ccccc2)S(=O)(=O)N2CCN(c3ccc(C(F)(F)F)cc3)CC2)n1` (relative stereo) [Example 2-06, (1R*,2S*)-1-{[2-(5-Amino-tetrazol-2-yl)-ethyl]-[4-(4-trifluoromethyl-phenyl)-piperazine-1-sulfonyl]-amino}-2-phenyl-cyclopropanecarboxylic acid], the IC50 in assay [1] is no less than 10000 nM; in assay [2] it was no less than 1000 nM; in assay [3] it was no less than 10000 nM.
In the case of `CN1CCN(C(=O)OCCN([C@]2(C(=O)O)C[C@H]2c2ccccc2)S(=O)(=O)c2ccc(-c3ccc(Cl)cc3)s2)CC1` [Example 2-15, 4-Methyl-piperazine-1-carboxylic acid 2-{((1R,2S)-1-carboxy-2-phenyl-cyclopropyl)-[5-(4-chloro-phenyl)-thiophene-2-sulfonyl]-amino}-ethyl ester], the IC50 in assay [1] was no less than 10000 nM; in assay [2], no less than 1000 nM; in assay [3], no less than 1000 nM.
On to `CN([C@]1(C(=O)O)C[C@H]1c1ccccc1)S(=O)(=O)c1ccc(-c2ccc(Cl)cc2)s1` [Example 2-12, (1R,2S)-1-{[5-(4-Chloro-phenyl)-thiophene-2-sulfonyl]-methyl-amino}-2-phenyl-cyclopropanecarboxylic acid], for which the half-maximal inhibitory concentration (IC50) in assay [1] is no less than 10000 nM; in assay [2] it was no less than 1000 nM; in assay [3], no less than 1000 nM.
`O=C1CN(S(=O)(=O)c2ccc(-c3ccc(Cl)cc3)s2)C2(C(=O)O)CC2(c2ccccc2)CN1` (stereo not drawn) [Example 2-25, 1R*,7S*)-2-[5-(4-Chloro-phenyl)-thiophene-2-sulfonyl]-4-oxo-7-phenyl-2,5-diaza-bicyclo[5.1.0]octane-1-carboxylic acid]: the figures for the half-maximal inhibitory concentration (IC50) in assay [1], in assay [2] and in assay [3] were no less than 10000 nM, no less than 1000 nM and no less than 1000 nM, respectively.
Regarding `O=C(O)CN([C@]1(C(=O)O)C[C@H]1c1ccccc1)S(=O)(=O)c1ccc(-c2ccc(Cl)cc2)s1` [Example 2-08, (1R,2S)-1-{Carboxymethyl-[5-(4-chloro-phenyl)-thiophene-2-sulfonyl]-amino}-2-phenyl-cyclopropanecarboxylic acid], the 50% inhibitory concentration (IC50) in assay [1] is no less than 10000 nM; in assay [2], less than 100 nM; in assay [3] it was no less than 10000 nM.
In the case of `O=C(O)C1(N(CCO)S(=O)(=O)c2ccc(-c3ccc(Cl)cc3)s2)CC1c1ccccc1` (stereo not drawn) [Example 2-04, (1R*,2S*)-1-[[5-(4-Chloro-phenyl)-thiophene-2-sulfonyl]-(2)-hydroxy-ethyl)-amino]-2-phenyl-cyclopropanecarboxylic acid], the IC50 is no less than 10000 nM in assay [1], no less than 1000 nM in assay [2] and no less than 1000 nM in assay [3].
As to `CN1CCN(C(=O)CN([C@]2(C(=O)O)C[C@H]2c2ccccc2)S(=O)(=O)c2ccc(-c3ccc(Cl)cc3)s2)CC1` [Example 2-17, (1R,2S)-1-{[5-(4-Chloro-phenyl)-thiophene-2-sulfonyl]-[2-(4-methyl-piperazin-1-yl)-2-oxo-ethyl]-amino}-2-phenyl-cyclopropanecarboxylic acid], the half-maximal inhibitory concentration (IC50) in assay [1] was no less than 10000 nM; in assay [2], no less than 1000 nM; in assay [3] it was no less than 1000 nM.
For `O=C(O)[C@@]12C[C@]1(c1ccccc1)CCCN2S(=O)(=O)c1ccc(-c2ccc(Cl)cc2)s1` (relative stereo) [Example 2-13, (1R*,6S*)-2-[5-(4-Chloro-phenyl)-thiophene-2-sulfonyl]-6-phenyl-2-aza-bicyclo[4.1.0]heptane-1-carboxylic acid], the IC50 in assay [1] was no less than 10000 nM; in assay [2], less than 1000 nM; in assay [3] it was no less than 1000 nM.
Take `O=C(O)c1cnn(CCN([C@]2(C(=O)O)C[C@H]2c2ccccc2)S(=O)(=O)N2CCN(c3ccc(C(F)(F)F)cc3)CC2)c1` (relative stereo) [Example 2-05, 1-(2-{((1R*,2S*)-1-Carboxy-2-phenyl-cyclopropyl)-[4-(4-trifluoromethyl-phenyl)-piperazine-1-sulfonyl]-amino}-ethyl)-1H-pyrazole-4-carboxylic acid]: the results for the IC50 in assay [1], in assay [2] and in assay [3] were no less than 10000 nM, less than 1000 nM and no less than 1000 nM, respectively.
For `CN1CCN(C(=O)OCCCN([C@]2(C(=O)O)C[C@H]2c2ccccc2)S(=O)(=O)c2ccc(-c3ccc(Cl)cc3)s2)CC1` [Example 2-21, 4-Methyl-piperazine-1-carboxylic acid 3-{((1R,2S)-1-carboxy-2-phenyl-cyclopropyl)-[5-(4-chloro-phenyl)-thiophene-2-sulfonyl]-amino}-propyl ester], in that order: no less than 10000 nM, no less than 1000 nM and no less than 1000 nM.
For `O=C(O)[C@@]12C[C@]1(c1ccccc1)COC(CO)CN2S(=O)(=O)c1ccc(-c2ccc(Cl)cc2)s1` (relative stereo) [Example 2-26, (1R*,7R*)-2-[5-(4-Chloro-phenyl)-thiophene-2-sulfonyl]-4-hydroxymethyl-7-phenyl-5-oxa-2-aza-bicyclo[5.1.0]octane-1-carboxylic acid], in that order: no less than 10000 nM, no less than 1000 nM and no less than 1000 nM.
